Measurements from publication PMC4501038 (RSC advances, 2015).
Structures can show the parent of a compound that is named as a salt. Non-standard residues stand in square brackets, D forms with d. pGlu = O=C1CC[C@@H](C(=O)O)N1

Experiments:
anesthetized mice [1] = experiment: Cardiovascular parameters; conditions: noradrenaline, dose not given
Swiss albino mice = experiment: Reversal of pentobarbital-induced sleeping time; format: in vivo; conditions: 10 μmol/kg i.v.
mice = experiment: Functional observation battery; conditions: mouse, in vivo
anesthetized mice [2] = experiment: Cerebral blood flow; format: in vivo; conditions: 6c 3.9 mg/kg, % change from basal
scopolamine-treated mice [3] = experiment: Scopolamine-induced memory impairment, Morris water maze; format: in vivo; conditions: for working memory: escape latencies trial 1 vs trial 2: each day for four days, 6c 3.9 mg/kg, scopolamine 1 mg/kg
scopolamine-treated mice [4] = experiment: Scopolamine-induced memory impairment, passive avoidance test; format: in vivo; conditions: rivastigmine (positive control) plus scopolamine
rodents = conditions: cited from earlier work
TRH-DE = conditions: read-out: Ki, inhibition of TRH-DE; cited from earlier work
central TRH receptors = conditions: read-out: Ki, binding to central TRH receptors; cited from earlier work

NC[C@H](O)c1ccc(O)c(O)c1 [Noradrenaline]
Δ Heart Rate (anesthetized mice [1]): 56.6±9 BPM
Δ MAP (anesthetized mice [1]): 42.8±2.2 mm Hg
Δ mean Diastolic BP (anesthetized mice [1]): 37.2±3.2 mm Hg
Δ mean Systolic BP (anesthetized mice [1]): 54.1±1.7 mm Hg

NC(=O)[C@@H]1CCCN1C(=O)[C@H](Cc1cnc[nH]1)NC(=O)[C@@H]1CCC(=O)N1 [TRH, pGlu-His-ProNH2]
Sleeping duration (Mean± SEM) (Swiss albino mice; pentobarbital 50 mg/kg i.p. 10 min later, mice): 53.9 ± 3.7 min
(%) Reduction in time (Swiss albino mice; relative to control, pentobarbital 50 mg/kg i.p.): 42.5%
FOB arousal (mice): moderate arousal
FOB gait and posture (mice): normal till three hours
FOB posture (mice): normal posture
FOB respiration (mice): do not affect normal respiration
FOB spontaneous activity in open field (mice): do not increase spontaneous activity
increase in cerebral blood flow (anesthetized mice [2]): 93.4±2.9%
working memory: escape latencies trial 1 vs trial 2 (scopolamine-treated mice [3]): significantly decrease in trial 2 compared to trial 1 on all four days

CCN(C)C(=O)Oc1cccc([C@H](C)N(C)C)c1 [rivastigmine]
working memory: escape latencies trial 1 vs trial 2 (scopolamine-treated mice [3]): significant effect on day 1, 2 and 3
step through latency (retention) (scopolamine-treated mice [4]): 235.1 ± 27.6 s

CN1[C@@H]2C[C@@H](OC(=O)[C@H](CO)c3ccccc3)C[C@H]1[C@@H]1O[C@@H]12 [scopolamine, scopolamine hydrobromide]
area under curve of the escape latencies in four-day trial (scopolamine-treated mice [3]; dose study, scopolamine (1 mg/kg i.p.) alone): 337.5 ± 12.2 s
working memory: escape latencies trial 1 vs trial 2 (scopolamine-treated mice [3]): did not show any significant difference between two trials

[1-methyl-(S)-4,5-dihydroorotyl)]-L-His-L-ProNH2 [TAL]
doses producing CNS effects, times lower than TRH (rodents): about 100 times
duration of antagonistic action on PB-induced sleep relative to TRH (rodents): eight times longer

[pGlu]NP[dY][dW]-NH2
Ki (TRH-DE): 151 nM
Ki (central TRH receptors): 6.8 nM
